Measured values taken from ChEMBL document CHEMBL1201862, “PubChem BioAssay data set” (2004).
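Step 1: Grow cells in 96-well plates. Step 2: Expose to compound for 48 hours at 5 concentrations. Step 3: Interpolate endpoints linearly; if unreached, use highest concentration. The concentration for 50% growth inhibition is given as GI50.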 Calls of active or inactive are those of the source. Rule as the data show it: active = GI50 up to about 1.1 µM and inactive = higher.

Tests used:
Test in all cases: growth of human tumour cells (NCI), 48 h
A498 = system: A498
HT-29 = system: HT-29
DMS-114 = system: DMS-114
UACC-257 = system: UACC-257
SNB-19 = system: SNB-19
Malme-3M = system: Malme-3M
M14 = system: M14
CAKI-1 = system: CAKI-1
RXF 393 = system: RXF 393
KM12 = system: KM12
HCC 2998 = system: HCC 2998
SR = system: SR
786-0 = system: 786-0
K562 = system: K562
SF-295 = system: SF-295
MOLT-4 = system: MOLT-4
COLO 205 = system: COLO 205
NCI-H522 = system: NCI-H522
SNB-78 = system: SNB-78
SF-268 = system: SF-268
SN12C = system: SN12C
SK-MEL-5 = system: SK-MEL-5
CCRF-CEM = system: CCRF-CEM
RXF 631 = system: RXF 631
SK-OV-3 = system: SK-OV-3
UACC-62 = system: UACC-62
EKVX = system: EKVX
RPMI-8226 = system: RPMI-8226
LXFL 529 = system: LXFL 529
LOX IMVI = system: LOX IMVI
TK-10 = system: TK-10
DMS-273 = system: DMS-273
OVCAR-3 = system: OVCAR-3
OVCAR-4 = system: OVCAR-4
HCT-116 = system: HCT-116
NCI-H460 = system: NCI-H460
NCI-H23 = system: NCI-H23
SW-620 = system: SW-620
HCT-15 = system: HCT-15
HOP-62 = system: HOP-62
A549 = system: A549
M19-MEL = system: M19-MEL
HL-60 = system: HL-60
XF498 = system: XF498
KM-20L2 = system: KM-20L2
OVCAR-8 = system: OVCAR-8
U-251 = system: U-251
HOP-92 = system: HOP-92
DLD-1 = system: DLD-1
SNB-75 = system: SNB-75
UO-31 = system: UO-31
SF-539 = system: SF-539
OVCAR-5 = system: OVCAR-5
NCI-H226 = system: NCI-H226
IGROV-1 = system: IGROV-1

Measured: GI50

CC(C)(C)Sc1nnc(SC(C)(C)C)c2c(SC(C)(C)C)nnc(O)c12
4.31 µM: HCT-15
inactive: A498 14 µM | HT-29 6.03 µM | DMS-114 4.31 µM | UACC-257 13.6 µM | SNB-19 11.6 µM | Malme-3M 13.1 µM | M14 14.8 µM | CAKI-1 3.58 µM | RXF 393 3.39 µM | KM12 12.9 µM | HCC 2998 11.5 µM | SR 4.14 µM | 786-0 10.1 µM | K562 4.74 µM | SF-295 11.4 µM | MOLT-4 3.37 µM | COLO 205 12.4 µM | NCI-H522 3.61 µM | SNB-78 12.2 µM | SF-268 7.53 µM | SN12C 10.2 µM | SK-MEL-5 5.35 µM | CCRF-CEM 7.5 µM | RXF 631 3.2 µM | SK-OV-3 17.9 µM | UACC-62 9.91 µM | EKVX 12.1 µM | RPMI-8226 2.8 µM | LXFL 529 10.6 µM | LOX IMVI 11.7 µM | TK-10 23.2 µM | DMS-273 7.8 µM | OVCAR-3 10.7 µM | OVCAR-4 2.16 µM | HCT-116 3.78 µM | NCI-H460 6.25 µM | NCI-H23 10.9 µM | SW-620 6.87 µM | HOP-62 13.9 µM | A549 4.59 µM | M19-MEL 4.37 µM | HL-60 2.14 µM | XF498 15.3 µM | KM-20L2 10.4 µM | OVCAR-8 10 µM | U-251 5.62 µM | HOP-92 2.49 µM | DLD-1 10.9 µM | SNB-75 11.8 µM | UO-31 5.73 µM | SF-539 10.6 µM | OVCAR-5 4.61 µM | NCI-H226 15.2 µM | IGROV-1 8.51 µM
